Reference: PMC12683216, “Using High‐Throughput Screening to Identify Crosslinking Peptides That Control Cell‐Mediated Matrix Degradation” (Advanced Healthcare Materials, 2025)
Where a SMILES comes first, the peptide text is derived from it. [ ]: non-standard residue; d: D form. βAla = NCCC(=O)O

What was measured:
Type in all cases: in vitro ADME, human
Details in all cases: human, 24 h, LC-MS
[1] = Soluble peptide degradation, Cells condition (LC-MS)
Procedure: (§1) Most in vitro protease activity assays incubate the peptides or proteins of interest with a single protease in a buffered solution. However, the kinetics of protease activity in tissues are complex and highly regulated, and both the activity^[ [37] ^] and substrate specificity^[ [38] ^] of proteases can be modulated through association with other proteins.^[ [39] ^] Most MMP‐substrate peptides are also cleaved by multiple proteases,^[ [5] ^] and within the context of biomaterials, the most important factor is typically how the combined activity of all proteases, rather than the activity of any specific protease, modifies the local microenvironment versus the activity due to any individual enzyme. We synthesized peptides identified in the TAILS proteomic screen that were present on proteins that are known to be secreted or found on the cell membrane, pooled them, and added them either to cell culture media on top of cells, the “Cells” condition, or conditioned media lacking cells, the “Media” condition (Figure 2A). The fraction of peptides remaining after 24 h in each condition was then quantified using LC‐MS. Soluble proteases should be present in both conditions, however, membrane‐type proteases should primarily be found in the samples containing cells and not the conditioned media samples. A key benefit of this approach is that it surveys the total functional proteolytic activity, including the effects of inhibitors and co‐factors, and quantifies the degradation rate of soluble peptides by the complete secretome of different cell types.
(§2) hUVECs (75000 per well) or hMSCs (36000 per well) were seeded into a 48 well plate, and 500 µL media was added to the wells. […] The peptide libraries were dissolved at a stock solution of 10 mM total peptide content. For libraries containing 38 peptides, 95 µL of the stock solution was added to each well; for libraries with 19 peptides, 47.5 µL was added to each well, and media was taken at 0 and 24 h. Add 4 µL of acetic acid to all collected media in the LC‐MS plates and store them in a −80 °C freezer to prevent further proteolytic degradation. From each sample, 10 µL of crude solution was introduced by the LC‐MS through a Thermo Scientific Vanquish LC System (Thermo Fisher Scientific), which outputted to a Thermo Scientific LTQ XL Linear Ion Trap Mass Spectrometer (Thermo Fisher Scientific). The sampled mixture was trapped on a column (ProntoSIL C18 AQ, 120 Å, 3 µm, 2.0 x 50 mm HPLC Column, PN 0502F184PS030, MAC‐MOD Analytical Inc.). The samples were loaded onto the column with a solvent containing acetonitrile/water, 5:95 (v/v) containing 1% acetic acid at a flow rate of 300 µL min^−1 and held for 1 min. The sample was then eluted from the column with a linear gradient of 5–40% Solvent B (1% acetic acid in acetonitrile) at the same flow rate for 5 min. This was followed by a 1 min ramp up to 100% Solvent B, where it was re‐equilibrated with Solvent A (1% acetic acid) to 5% solvent B over the course of 1 min and held there for 2 min. The column temperature was kept at a constant 29 °C, and the mass spectrometer was operated in positive ion mode. Using a Heated ESI, the Source Voltage was set to 4.1 kV, and the capillary temperature was 350 °C. For non‐library degradation studies, 2.5 µL of 10 mM peptide stock solution for each peptide was added.
In the MMP‐14 inhibitor study, the MMP‐14 inhibitor NSC 405 020 (Cayman Chemical Company) was dissolved in DMSO to make a 10 mM stock solution and stored in −20 °C freezer. 0.5 µL MMP‐14 inhibitor stock solution was added to each well to achieve a 10 µM final concentration.
For all degradation studies using soluble peptides, a non‐proteolytically degradable NH2‐βFβAβAβAβAβAβA‐amide (βFβA6) peptide, where βF is β‐phenylalanine and βA is β‐alanine, was added at a 50 µM concentration and used as an internal standard. Peptide degradation ratios were measured by LC‐MS and analyzed by Xcalibur. […]

[2] = Soluble peptide degradation, Media condition (cell-conditioned media, LC-MS)
Procedure: as §1, §2
(§3) To assess the activity of the conditioned media, the media were divided into two equal portions. One portion was used for a standard degradation study, while the other was cultured for an additional 24 h before the PanMMP and KLVADLMASAE were added. After 24 h of incubation, the media were collected for further analysis. To assess the impact of recombinant MMP‐14 on PanMMP and KLVADLMASAE, recombinant MMP‐14 (antibodies.com) was dissolved in the media at a concentration of 0.5 nM. The remaining steps followed the standard degradation study protocol. […]

[3] = as above; remark: listed apart in the source
Procedure: as §1, §2, §3

[4] = hMSCs in culture with fresh media (Cells condition), Figure 2B heatmap, pooled TAILS-derived soluble peptides (Ac-βAla N-terminus, βAla-amide C-terminus) in media on hMSCs (36000 per well, 48 well plate, 500 µL), ratio to βFβA6 internal standard, 24 h / 0 h, N = 5, read-out: Fraction of peptide remaining at 24 hours: hMSC Cells
[5] = hUVECs in culture with fresh media (Cells condition), Figure 2B heatmap, pooled TAILS-derived soluble peptides in media on hUVECs (75000 per well, 48 well plate, 500 µL), ratio to βFβA6 internal standard, 24 h / 0 h, N = 5, read-out: Fraction of peptide remaining at 24 hours: hUVEC Cells
[6] = Figure 2B heatmap, pooled TAILS-derived soluble peptides in 24 h hUVEC-conditioned media without cells, ratio to βFβA6 internal standard, 24 h / 0 h, N = 5, read-out: Fraction of peptide remaining at 24 hours: hUVEC Media
[7] = Figure 2B heatmap, pooled TAILS-derived soluble peptides in 24 h hMSC-conditioned media without cells, ratio to βFβA6 internal standard, 24 h / 0 h, N = 5, read-out: Fraction of peptide remaining at 24 hours: hMSC Media
[8] = hMSCs in culture with fresh media (Cells condition), Figure 3B heatmap, split-and-pool libraries KLVADX1X2ASAE (19 or 38 peptides per library) in media on hMSCs, ratio to βFβA6, N = 2, read-out: Fraction of peptide remaining after 24 hours: hMSC Cells
[9] = hUVECs in culture with fresh media (Cells condition), Figure 3B heatmap, split-and-pool libraries KLVADX1X2ASAE in media on hUVECs, ratio to βFβA6, N = 2, read-out: Fraction of peptide remaining after 24 hours: hUVEC Cells
[10] = hUVEC-conditioned media without cells (Media condition), Figure 3B heatmap, split-and-pool libraries KLVADX1X2ASAE in hUVEC-conditioned media without cells, ratio to βFβA6, N = 2, read-out: Fraction of peptide remaining after 24 hours: hUVEC Media
[11] = hMSC-conditioned media without cells (Media condition), Figure 3B heatmap, split-and-pool libraries KLVADX1X2ASAE in hMSC-conditioned media without cells, ratio to βFβA6, N = 2, read-out: Fraction of peptide remaining after 24 hours: hMSC Media

| SMILES | remaining at 24 h [1, 4] [%] | remaining at 24 h [1, 5] [%] | remaining at 24 h [2, 6] [%] | remaining at 24 h [3, 7] [%] | remaining at 24 h [1, 8] [%] | remaining at 24 h [1, 9] [%] | remaining at 24 h [2, 10] [%] | remaining at 24 h [3, 11] [%] |
| --- | --- | --- | --- | --- | --- | --- | --- | --- |
| CC(=O)NCCC(=O)N1CCC[C@H]1C(=O)N1CCC[C@H]1C(=O)N[C@@H](CO)C(=O)N[C@@H](CCCNC(=N)N)C(=O)N[C@@H](Cc1c[nH]cn1)C(=O)N[C@@H](CC(=O)O)C(=O)N[C@H](C(=O)NCC(=O)N[C@H](C(=O)N1CCC[C@H]1C(=O)NCCC(N)=O)[C@@H](C)O)[C@@H](C)O [PPSRHDTGTP] (Ac-[βAla]PPSRHDTGTP[βAla]-NH2) | 100 | 103 | 104 | 87 | – | – | – | – |
| CSCC[C@H](NC(=O)[C@H](CC(=O)O)NC(=O)[C@H](C)NC(=O)[C@@H](NC(=O)[C@H](CC(C)C)NC(=O)[C@H](CCCCN)NC(=O)CCNC(C)=O)C(C)C)C(=O)N[C@@H](C)C(=O)N[C@@H](C)C(=O)N[C@@H](CO)C(=O)N[C@@H](C)C(=O)N[C@@H](CCC(=O)O)C(=O)NCCC(N)=O [Met-Ala] (Ac-[βAla]KLVADMAASAE[βAla]-NH2) | – | – | – | – | 38 | 88 | 97 | 61 |
| CC(=O)NCCC(=O)N[C@@H](CCCCN)C(=O)N[C@@H](CC(C)C)C(=O)N[C@H](C(=O)N[C@@H](C)C(=O)N[C@@H](CC(=O)O)C(=O)N[C@@H](CC(C)C)C(=O)N[C@@H](Cc1c[nH]c2ccccc12)C(=O)N[C@@H](C)C(=O)N[C@@H](CO)C(=O)N[C@@H](C)C(=O)N[C@@H](CCC(=O)O)C(=O)NCCC(N)=O)C(C)C [Leu-Trp] (Ac-[βAla]KLVADLWASAE[βAla]-NH2) | – | – | – | – | 37 | 91 | 98 | 62 |
| CC(=O)NCCC(=O)N[C@@H](CCC(=O)O)C(=O)N[C@@H](CO)C(=O)N[C@@H](CO)C(=O)N[C@@H](Cc1c[nH]cn1)C(=O)N[C@@H](CC(N)=O)C(=O)N[C@H](C(=O)N[C@@H](Cc1ccc(O)cc1)C(=O)N[C@@H](CC(C)C)C(=O)N[C@H](C(=O)N[C@@H](CCC(N)=O)C(=O)NCCC(N)=O)[C@@H](C)O)[C@@H](C)O [ESSHNTYLTQ] (Ac-[βAla]ESSHNTYLTQ[βAla]-NH2) | 88 | 100 | 102 | 98 | – | – | – | – |
| CC(=O)NCCC(=O)N[C@@H](CCCCN)C(=O)N[C@@H](CC(C)C)C(=O)N[C@H](C(=O)N[C@@H](C)C(=O)N[C@@H](CC(=O)O)C(=O)N1CCC[C@H]1C(=O)N[C@@H](Cc1ccccc1)C(=O)N[C@@H](C)C(=O)N[C@@H](CO)C(=O)N[C@@H](C)C(=O)N[C@@H](CCC(=O)O)C(=O)NCCC(N)=O)C(C)C [Pro-Phe] (Ac-[βAla]KLVADPFASAE[βAla]-NH2) | – | – | – | – | 41 | 84 | 97 | 73 |
| CC(=O)NCCC(=O)N[C@@H](CC(C)C)C(=O)N[C@@H](C)C(=O)N[C@@H](CC(C)C)C(=O)N[C@@H](CCC(=O)O)C(=O)N[C@@H](C)C(=O)N[C@@H](CCCNC(=N)N)C(=O)N[C@H](C(=O)N[C@H](C(=O)N[C@@H](CC(=O)O)C(=O)N[C@@H](CC(C)C)C(=O)NCCC(N)=O)[C@@H](C)O)[C@@H](C)O [LALEARTTDL] (Ac-[βAla]LALEARTTDL[βAla]-NH2) | 68 | 94 | 104 | 86 | – | – | – | – |
| CC(=O)NCCC(=O)N[C@@H](CCCCN)C(=O)N[C@@H](CC(C)C)C(=O)N[C@H](C(=O)N[C@@H](C)C(=O)N[C@@H](CC(=O)O)C(=O)N[C@@H](Cc1ccc(O)cc1)C(=O)N1CCC[C@H]1C(=O)N[C@@H](C)C(=O)N[C@@H](CO)C(=O)N[C@@H](C)C(=O)N[C@@H](CCC(=O)O)C(=O)NCCC(N)=O)C(C)C [Tyr-Pro] (Ac-[βAla]KLVADYPASAE[βAla]-NH2) | – | – | – | – | 35 | 89 | 96 | 65 |
| CC(=O)NCCC(=O)N[C@@H](CCCCN)C(=O)N[C@@H](CC(C)C)C(=O)N[C@H](C(=O)N[C@@H](C)C(=O)N[C@@H](CC(=O)O)C(=O)N[C@@H](CC(C)C)C(=O)N[C@@H](CC(C)C)C(=O)N[C@@H](C)C(=O)N[C@@H](CO)C(=O)N[C@@H](C)C(=O)N[C@@H](CCC(=O)O)C(=O)NCCC(N)=O)C(C)C [Leu-Leu] (Ac-[βAla]KLVADLLASAE[βAla]-NH2) | – | – | – | – | 41 | 91 | 97 | 73 |
| CC[C@H](C)[C@H](NC(=O)[C@H](Cc1c[nH]cn1)NC(=O)[C@H](CCC(=O)O)NC(=O)[C@@H]1CCCN1C(=O)[C@H](Cc1ccccc1)NC(=O)[C@H](CC(N)=O)NC(=O)CCNC(C)=O)C(=O)N[C@@H](Cc1ccccc1)C(=O)N1CCC[C@H]1C(=O)N[C@@H](C)C(=O)N[C@@H](CC(C)C)C(=O)N[C@@H](C)C(=O)NCCC(N)=O [NFPEHIFPALA] (Ac-[βAla]NFPEHIFPALA[βAla]-NH2) | 73 | – | 99 | 92 | – | – | – | – |
| CC[C@H](C)[C@H](NC(=O)[C@H](CCCCN)NC(=O)[C@@H](NC(=O)[C@H](CO)NC(=O)[C@H](CO)NC(=O)[C@@H]1CCCN1C(=O)CCNC(C)=O)[C@@H](C)CC)C(=O)N[C@@H](CCCCN)C(=O)N[C@@H](CO)C(=O)N[C@@H](C)C(=O)N[C@@H](CC(=O)O)C(=O)N[C@@H](CCCCN)C(=O)NCCC(N)=O [PSSIKIKSADK] (Ac-[βAla]PSSIKIKSADK[βAla]-NH2) | 81 | 86 | 93 | 90 | – | – | – | – |
